IC50, EC50 and melting point data for 17 compounds are collected here from US8536332B2, “Modulating signal transduction pathways with substituted pyridol [2,3-b] pyrazines” (Aeterna Zentaris GmbH, priority 2007, dated 2013).

A value given as a limit tells only on which side of the number the result lay.

In one data set the target is T1, Erk2 (Mus musculus, UniProt P63085).
T1 construct: purchased Upstate #14-173
The experiment in a line: Cell-free kinase assay Erk2-ALPHA. The data set is classed as biochemical, human. Particulars: 10 μM ATP. How it is done:
(§1) The inhibitory effect of the compounds of the invention was tested on various human serine/threonine kinases, tyrosine kinases and lipid kinases in enzymatic assays. Recombinant human kinases, for example PI3Kalpha, -beta, -gamma, -delta, Erk2, p38alpha, p38gamma, Jnk1, Jnk2 and others were used, in some cases as full-length kinases, in some cases as truncated fragments—but at least consisting of the functional kinase domains. The commercial kinase proteins (Proqinase, Upstate) were used as recombinant fusion proteins with GST (glutathione S-transferase) tag or His tag. Depending on the substrate type, the different kinase reactions were quantified by suitable ALPHA™ beads (PerkinElmer).
(§2) The kinase assays for PI3K and Erk are described in detail and selected test results are cited below. […] Subsequently, the kinase reaction was stopped by adding the ALPHA bead mix (10 μg/ml, #6760603/PerkinElmer), preincubated with 1 nM GST:Grp1 fusion protein (Upstate) and […] (#C-39B6/Echelon) in 50 mM Hepes, 50 mM NaCl, 50 mM EDTA and 0.1% BSA, and left to stand overnight. • b) Erk2-ALPHA: The test substance, 0.625 ng of Erk2 (#14-173, Upstate), 10 μM ATP and 15 nM biotinylated MBP (myelin basic protein) substrate were incubated on a 384-well Optiplate (Perkin Elmer) in a volume of 15 μl for 1 h in 25 mM Tris, 10 mM MgCl2, 0.1% Tween-20, 100 μM NaVO4, 2 mM DTT at pH 7.5. The kinase reaction was stopped by adding 10 μl of the ALPHA bead mix (10 μg/ml, #6760617/PerkinElmer), pre-incubated with anti-phospho MBP antibody (320 pM, #05-429/Upstate), in 25 mM Tris, 200 mM NaCl, 100 mM EDTA and 0.3% BSA, and left to stand overnight.
(§3) The luminiscence was detected the next morning in a Fusion™ alpha instrument (Perkin Elmer).
(§4) The calculation of % inhibition values per substance concentration was done by means of the following formula from the raw data determined in the Fusion™ alpha:
(§5) The controls were determined 8 fold and the substance samples 2 fold. 0% control contained neither any ATP nor any substrate. The 100% control contained no test substance. The IC50 values were determined with GraphPadPrism.

The target of a further data set is p38alpha (Homo sapiens, UniProt Q16539). The experiment in a line: Cell-free kinase assay (ALPHA technology) p38alpha. The data set is classed as biochemical. Conditions: 10 μM ATP. How it is done: as §1, §2, §3, §4, §5
The subject of another data set is T2, Jnk1 + Jnk2.
T2 construct: fused on or other part: GST tag or His tag (commercial recombinant fusion proteins from Proqinase or Upstate)
Kind of data set: Cell-free kinase assay (ALPHA technology) Jnk1 + Jnk2. Particulars: 10 μM ATP. The format is biochemical, human. How it is done: as §1, §2, §3, §4, §5

A further data set deals with MDA-MB468. Kind of data set: XTT assay, anti-proliferative activity, MDA-MB468. The format is cell-based. Conditions: Homo sapiens, MDA-MB-468; 45 h incubation. How it is done:
(§6) The principle of this test is based on the intracellular reduction of the tetrazolium dye XTT (sodium 3′-[1-(phenylaminocarbonyl)-3,4-tetrazolium]bis(4-methoxy-6-nitro)benzenesulphonic acid, Sigma) to a formazan dye by mitochondrial dehydrogenases. The dye is formed only by metabolically active cells. Its photometrically measurable intensity is a quantitative indicator for the presence of living cells. The reduction in the dye formation as a result of incubation of the cells with substances serves as a parameter for the anti-proliferative activity.
(§7) The tumour cell lines (ATCC) were seeded in 96-well microtitre plates in a defined cell count (5000 cells/well for Hct116; 10000 cells/well for MDA MB468), and incubated overnight at 37° C., 5% CO2 and 95% air humidity. The test substances were made up as stock solutions (10 mM) in DMSO. […] The cell plates were then incubated for 45 h at 37° C., 5% CO2 and 95% air humidity.
(§8) For the detection reaction, the XTT substrate was mixed with PMS (N-methyldibenzopyrazine methylsulphate, Sigma) and added to the cells, to result in a final concentration of 325 μg of XTT/ml and 2.5 μg PMS/ml. The mixture was then incubated for 3 h at 37° C., 95% air humidity. Subsequently the formazan salt formed by cellular dehydrogenases was quantified at an absorption of 490 nm.
(§9) The evaluation of the % inhibition values was done by means of the following formula from the values for the optical densities measured in each case at 490 nm:
(§10) The controls were determined 8 fold, the substance samples 2 fold. 0% control contained no cells and the 100% control contained no test substance. The EC50 values were determined with GraphPadPrism.
On the technique in general: Formazan colour is commonly taken as a measure of viable cells.

The test system of another data set is Hct116. The experiment in a line: XTT assay, anti-proliferative activity, Hct116. The data set is classed as cell-based. Conditions: Homo sapiens, HCT-116; 45 h incubation. How it is done: as §6, §7, §8, §9, §10

T1 sequence (P63085 whole entry): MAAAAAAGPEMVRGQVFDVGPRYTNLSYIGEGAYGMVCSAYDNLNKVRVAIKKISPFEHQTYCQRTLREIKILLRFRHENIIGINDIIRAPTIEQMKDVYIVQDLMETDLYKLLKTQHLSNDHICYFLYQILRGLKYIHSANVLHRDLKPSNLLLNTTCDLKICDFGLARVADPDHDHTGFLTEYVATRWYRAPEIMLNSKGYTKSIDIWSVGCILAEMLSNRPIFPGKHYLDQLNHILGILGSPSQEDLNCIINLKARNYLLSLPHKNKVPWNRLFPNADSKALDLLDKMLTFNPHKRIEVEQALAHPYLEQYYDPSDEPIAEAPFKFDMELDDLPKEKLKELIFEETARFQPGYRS
p38alpha, sequence (Q16539 whole entry): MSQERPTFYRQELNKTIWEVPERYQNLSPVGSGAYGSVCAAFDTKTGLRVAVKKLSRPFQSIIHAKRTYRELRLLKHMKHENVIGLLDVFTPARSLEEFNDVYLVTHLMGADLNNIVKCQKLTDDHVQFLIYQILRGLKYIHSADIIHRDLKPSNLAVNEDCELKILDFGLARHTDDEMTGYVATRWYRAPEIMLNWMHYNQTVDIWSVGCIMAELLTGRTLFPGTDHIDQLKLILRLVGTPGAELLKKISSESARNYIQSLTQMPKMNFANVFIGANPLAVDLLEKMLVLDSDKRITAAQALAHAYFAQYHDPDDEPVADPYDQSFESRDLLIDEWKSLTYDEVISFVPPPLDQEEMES

Usually IC50 stands for the concentration at which inhibition is half-maximal. For orientation: EC50 means the concentration giving half of the maximal effect. A high value points to a less potent agent. The melting point is the temperature, or range, at which the solid turns liquid. In turn, `CNC(=O)Nc1cnc2ccc(-c3ccc(OC)c(OC)c3)nc2n1` [Compound 566, 1-[6-(3,4-Dimethoxy-phenyl)-pyrido[2,3-b]pyrazin-3-yl]-3-methyl-urea] had a melting point of 253 to 255 °C. In addition, the IC50 at Erk2 is > 100 µM. For the same compound, the IC50 on p38alpha is > 31.6 µM. Besides, the half-inhibitory concentration (IC50) in the data set on Jnk1 + Jnk2 was > 100 µM. The EC50 in the data set with MDA-MB468 is < 5 µM. Further, the EC50 in the data set on Hct116 is < 5 µM.
In the case of `CNC(=S)Nc1cnc2ccc(-c3ccc(O)c(OC)c3)nc2n1` [Compound 526, 1-[6-(4-Hydroxy-3-methoxy-phenyl)-pyrido[2,3-b]pyrazin-3-yl]-3-methyl-thiourea], the melting point was 279 to 280 °C. At Erk2, the IC50 is > 100 µM. Besides, the IC50 against p38alpha was < 50 µM. For the same compound, the IC50 in the data set with Jnk1 + Jnk2 was > 100 µM. In addition, the EC50 with MDA-MB468 is < 1 µM. Besides, the EC50 with Hct116 was < 5 µM.
Turning to `COc1cc(-c2ccc3ncc(NC(=O)NC4CCN(C(=O)C(F)(F)F)CC4)nc3n2)ccc1O` [Compound 30, 1-[6-(4-Hydroxy-3-methoxy-phenyl)-pyrido[2,3-b]pyrazin-3-yl]-3-[1-(2,2,2-trifluoro-acetyl)-piperidin-4-yl]-urea], the melting point was 236 to 239 °C. In addition, the IC50 at Erk2 is < 10 µM. Also, at p38alpha, the IC50 was < 10 µM. In the data set with Jnk1 + Jnk2, the IC50 is < 31.6 µM.
With `COc1cc(-c2ccc3ncc(NC(=O)Nc4ccncc4)nc3n2)ccc1O` [Compound 176, 1-[6-(4-Hydroxy-3-methoxy-phenyl)-pyrido[2,3-b]pyrazin-3-yl]-3-pyridin-4-yl-urea], the melting point was in the range of 234 to 237 °C. Also, the IC50 on Erk2 is > 31.6 µM. For the same compound, at p38alpha, the IC50 is < 50 µM. Also, the IC50 in the data set on Jnk1 + Jnk2 was < 50 µM. For the same compound, the EC50 in the data set on MDA-MB468 is < 1 µM. Besides, in the data set on Hct116, the EC50 was < 1 µM.
Take `CC(C)(C)NC(=O)Nc1cnc2ccc(-c3cc(Cl)c(O)c(Cl)c3)nc2n1` [Compound 553, 1-tert-Butyl-3-[6-(3,5-dichloro-4-hydroxy-phenyl)-pyrido[2,3-b]pyrazin-3-yl]-urea]: the melting point is 251 to 253 °C. The IC50 against Erk2 is > 100 µM. Moreover, the IC50 at p38alpha is > 100 µM. Besides, the IC50 with Jnk1 + Jnk2 was < 100 µM. The EC50 in the data set on MDA-MB468 is < 5 µM. Moreover, the EC50 in the data set on Hct116 is < 5 µM.
With `CCNC(=O)Nc1cnc2ccc(-c3cc(C)c(O)c(C)c3)nc2n1` [Compound 181, 1-Ethyl-3-[6-(4-hydroxy-3,5-dimethyl-phenyl)-pyrido[2,3-b]pyrazin-3-yl]-urea], the melting point is > 240 °C. Further, on Erk2, the IC50 is > 100 µM. For the same compound, the half-maximal inhibitory concentration (IC50) against p38alpha is < 50 µM. Also, the IC50 in the data set on Jnk1 + Jnk2 was > 100 µM. The EC50 with MDA-MB468 is < 10 µM. Also, the EC50 with Hct116 is < 10 µM.
Take `O=C(Nc1cnc2ccc(-c3cc(Cl)c(O)c(Cl)c3)nc2n1)NC1CCCC1` [Compound 563, 1-Cyclopentyl-3-[6-(3,5-dichloro-4-hydroxy-phenyl)-pyrido[2,3-b]pyrazin-3-yl]-urea]: the melting point lay within 262 to 264 °C. Also, the IC50 on Erk2 was > 100 µM. Besides, the EC50 in the data set on MDA-MB468 is < 1 µM. The EC50 with Hct116 is < 1 µM.
As for `COc1cc(-c2ccc3ncc(NC(=O)NCCCl)nc3n2)ccc1O` [Compound 173, 1-(2-Chloro-ethyl)-3-[6-(4-hydroxy-3-methoxy-phenyl)-pyrido[2,3-b]pyrazin-3-yl]-urea], the melting point is 215 to 218 °C. At Erk2, the IC50 was < 50 µM. Moreover, the IC50 against p38alpha was < 50 µM. Further, the IC50 in the data set on Jnk1 + Jnk2 is < 31.6 µM. Besides, the EC50 with MDA-MB468 was < 1 µM. Also, the EC50 with Hct116 was < 1 µM.
In turn, `COc1cc(Nc2cnc3ccc(NC(=S)NC4CCCC4)nc3n2)cc(OC)c1OC` [Compound 509, 1-Cyclopentyl-3-[3-(3,4,5-trimethoxy-phenylamino)-pyrido[2,3-b]pyrazin-6-yl]-thiourea] returned a melting point of 246 °C. Moreover, the IC50 against Erk2 was > 100 µM. Besides, the IC50 against p38alpha was > 100 µM. Besides, in the data set with Jnk1 + Jnk2, the IC50 was > 100 µM. Moreover, the EC50 in the data set on MDA-MB468 is < 5 µM. Besides, the concentration for a half-maximal effect (EC50) in the data set with Hct116 is < 5 µM.
In turn, `CCNC(=S)Nc1ccc2ncc(Nc3cc(OC)c(OC)c(OC)c3)nc2n1` [Compound 160, 1-Ethyl-3-[3-(3,4,5-trimethoxy-phenylamino)-pyrido[2,3-b]pyrazin-6-yl]-thiourea] yielded a melting point of 268 °C. Moreover, on Erk2, the IC50 is < 31.6 µM. The IC50 against p38alpha is < 50 µM. Also, the IC50 with Jnk1 + Jnk2 was > 100 µM. In addition, the EC50 in the data set on MDA-MB468 was < 1 µM. Also, the concentration giving a half-maximal response (EC50) in the data set on Hct116 was < 1 µM.
`CCNC(=O)Nc1cnc2ccc(-c3ccc(O)c(Cl)c3)nc2n1` [Compound 637, 1-[6-(3-Chloro-4-hydroxy-phenyl)-pyrido[2,3-b]pyrazin-3-yl]-3-ethyl-urea]: the melting point was > 270 °C. Also, the half-maximal inhibitory concentration (IC50) against Erk2 was > 100 µM. Besides, the IC50 against p38alpha was > 100 µM. In the data set on Jnk1 + Jnk2, the concentration for half-maximal inhibition (IC50) is > 100 µM. The EC50 in the data set with MDA-MB468 is < 10 µM. In the data set on Hct116, the EC50 was < 10 µM.
Turning to `COc1cc(-c2ccc3ncc(NC(=O)Nc4cccs4)nc3n2)ccc1O` [Compound 614, 1-[6-(4-Hydroxy-3-methoxy-phenyl)-pyrido[2,3-b]pyrazin-3-yl]-3-thiophen-2-yl-urea], the melting point was 216 to 219 °C. In addition, on Erk2, the IC50 is < 31.6 µM. The IC50 on p38alpha is < 10 µM. Also, the IC50 with Jnk1 + Jnk2 is < 31.6 µM. For the same compound, the EC50 in the data set with MDA-MB468 was < 5 µM. Moreover, the EC50 with Hct116 is < 5 µM.
With `CCNC(=S)Nc1ccc2ncc(Nc3ccc(C)cc3)nc2n1` [Compound 126, 1-Ethyl-3-(3-p-tolylamino-pyrido[2,3-b]pyrazin-6-yl)-thiourea], the melting point was determined as 278 °C. Also, the EC50 in the data set with MDA-MB468 is < 5 µM. In addition, in the data set with Hct116, the EC50 is < 5 µM.
As to `COc1cc(-c2ccc3ncc(NC(=O)NC4CCCC4)nc3n2)ccc1O` [Compound 20, 1-Cyclopentyl-3-[6-(4-hydroxy-3-methoxy-phenyl)-pyrido[2,3-b]pyrazin-3-yl]-urea], the melting point was in the range of 222 to 225 °C. Further, the IC50 at Erk2 was > 100 µM. The IC50 at p38alpha was > 100 µM. The concentration for half-maximal inhibition (IC50) in the data set on Jnk1 + Jnk2 was > 100 µM.
`CCNC(=S)Nc1ccc2ncc(Nc3ccc(OC)c(O)c3)nc2n1` [Compound 147, 1-Ethyl-3-[3-(3-hydroxy-4-methoxy-phenylamino)-pyrido[2,3-b]pyrazin-6-yl]-thiourea] yielded a melting point of 272 °C. Besides, at Erk2, the IC50 is > 100 µM. For the same compound, at p38alpha, the IC50 was > 100 µM. In addition, the IC50 in the data set on Jnk1 + Jnk2 was > 31.6 µM. Also, in the data set with MDA-MB468, the EC50 was < 5 µM. Also, in the data set on Hct116, the EC50 was < 5 µM.
`CCNC(=S)Nc1ccc2ncc(-c3cnn(C)c3)nc2n1` [Compound 113, 1-Ethyl-3-[3-(1-methyl-1H-pyrazol-4-yl)-pyrido[2,3-b]pyrazin-6-yl]-thiourea] gave a melting point of 242 °C. In the data set on MDA-MB468, the EC50 was < 5 µM. In the data set on Hct116, the EC50 is < 5 µM.
Regarding `CCNC(=O)Nc1ccc2ncc(Nc3cccc(OC)c3)nc2n1` [Compound 89, 1-Ethyl-3-[3-(3-methoxy-phenylamino)-pyrido[2,3-b]pyrazin-6-yl]-urea], the melting point fell in the range of 216 to 219 °C. Besides, in the data set with MDA-MB468, the EC50 is < 5 µM. Besides, in the data set on Hct116, the concentration giving a half-maximal response (EC50) was < 5 µM.
